In one experiment the target is T1, AcLOX4a-D1 (Actinidia chinensis, UniProt A0A2R6P8A4).
T1 construct: gene CEY00_Acc32486; N-terminal HIS6-MBP fusion (pMAL-c6T), tag kept; E. coli BL21 (DE3) Codon Plus RIL
The experiment in a line: spectrophotometric, product formation at […] nm. The experiment is classed as biochemical. Particulars: air-saturated 30 mM Tris-Cl, pH 7.5, read-out: Km-app /.

The target in another experiment is T2, AcLOX4c-D1 (Actinidia chinensis, UniProt Z9ABF8LHO4).
T2 construct: N-terminal HIS6-MBP fusion (pMAL-c6T), tag kept; E. coli BL21 (DE3) Codon Plus RIL
T2 sequence (Z9ABF8LHO4 57-898): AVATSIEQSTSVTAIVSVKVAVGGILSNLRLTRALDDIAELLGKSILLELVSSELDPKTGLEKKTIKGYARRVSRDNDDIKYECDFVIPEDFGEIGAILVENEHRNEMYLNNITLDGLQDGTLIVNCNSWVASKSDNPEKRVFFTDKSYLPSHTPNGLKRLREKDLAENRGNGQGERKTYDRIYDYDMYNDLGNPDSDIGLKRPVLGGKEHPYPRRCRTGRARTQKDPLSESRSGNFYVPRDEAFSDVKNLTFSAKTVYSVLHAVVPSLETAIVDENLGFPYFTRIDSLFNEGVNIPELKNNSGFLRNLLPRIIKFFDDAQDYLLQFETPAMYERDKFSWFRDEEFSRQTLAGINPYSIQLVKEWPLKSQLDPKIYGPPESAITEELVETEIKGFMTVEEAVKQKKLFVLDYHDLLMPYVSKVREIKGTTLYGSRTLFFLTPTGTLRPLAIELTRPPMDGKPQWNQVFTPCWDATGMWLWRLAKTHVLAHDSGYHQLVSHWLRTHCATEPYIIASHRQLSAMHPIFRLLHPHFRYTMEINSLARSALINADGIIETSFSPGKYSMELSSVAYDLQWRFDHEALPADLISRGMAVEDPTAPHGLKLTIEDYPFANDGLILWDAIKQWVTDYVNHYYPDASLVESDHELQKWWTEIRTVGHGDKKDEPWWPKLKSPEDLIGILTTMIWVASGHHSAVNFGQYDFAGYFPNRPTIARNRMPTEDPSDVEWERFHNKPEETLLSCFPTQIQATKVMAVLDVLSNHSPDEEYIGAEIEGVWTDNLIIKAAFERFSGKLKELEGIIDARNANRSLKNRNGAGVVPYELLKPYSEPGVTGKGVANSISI
The experiment in a line: spectrophotometric, product formation at […] nm. The note with it: air-saturated 30 mM Tris-Cl, pH 7.5; substrate inhibition at >50 µM; read-out: Km-app /. It is filed as biochemical.

Read-outs that look alike come from different tables or passages of the source.

T1 sequence (A0A2R6P8A4 entry or part of it): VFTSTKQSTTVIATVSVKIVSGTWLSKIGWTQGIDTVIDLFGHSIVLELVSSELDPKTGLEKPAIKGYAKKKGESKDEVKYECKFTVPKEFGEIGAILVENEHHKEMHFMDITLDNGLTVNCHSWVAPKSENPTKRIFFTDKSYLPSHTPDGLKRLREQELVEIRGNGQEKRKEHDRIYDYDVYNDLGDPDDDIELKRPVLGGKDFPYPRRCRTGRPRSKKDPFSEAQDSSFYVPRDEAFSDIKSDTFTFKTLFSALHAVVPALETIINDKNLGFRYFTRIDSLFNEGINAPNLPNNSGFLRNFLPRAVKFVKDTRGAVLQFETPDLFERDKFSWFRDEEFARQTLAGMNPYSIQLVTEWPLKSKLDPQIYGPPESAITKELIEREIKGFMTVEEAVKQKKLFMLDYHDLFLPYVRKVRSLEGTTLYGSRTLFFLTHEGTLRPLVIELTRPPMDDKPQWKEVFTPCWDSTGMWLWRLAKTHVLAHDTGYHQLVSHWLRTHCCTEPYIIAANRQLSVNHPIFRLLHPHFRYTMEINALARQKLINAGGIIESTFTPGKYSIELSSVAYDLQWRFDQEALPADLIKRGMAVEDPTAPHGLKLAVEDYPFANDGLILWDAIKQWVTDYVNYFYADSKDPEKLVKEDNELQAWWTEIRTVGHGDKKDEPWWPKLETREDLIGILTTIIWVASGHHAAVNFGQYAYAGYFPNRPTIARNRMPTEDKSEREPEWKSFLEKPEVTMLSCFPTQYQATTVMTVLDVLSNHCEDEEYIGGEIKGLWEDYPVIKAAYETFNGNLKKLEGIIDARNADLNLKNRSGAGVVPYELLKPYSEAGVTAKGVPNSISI

As to `CCCCC/C=C\C/C=C\CCCCCCCC(=O)O` [linoleic acid], the Km worked out at 193 µM on AcLOX4a-D1 (substrate inhibition at >125 µM) and 59.2 µM at AcLOX4c-D1.

On to `CC/C=C\C/C=C\C/C=C\CCCCCCCC(=O)O` [α-linolenic acid], for which, on AcLOX4a-D1, the Km was 133 µM.

For the origin of these results see article PMC12268261, “The aldehyde (ALD) locus controls C6-aldehyde production in kiwifruit and affects consumer perception of fruit aroma” (Plant Physiology, 2025).
